Data from patent publication US20240016729A1, “INJECTABLE FORMULATIONS OF IBUDILAST” (MediciNova, Inc., priority 2022, published 2024).
Values after ≈ are worked out from the molar mass of the structure shown.

Assays:
[1] = Initial solubility screen with various excipients; format: physicochemical; conditions: for solubility at 24 h: fully dissolved after 24 h
[2] = Follow-up solubility assessment (cosolvent mixtures, surfactants); format: physicochemical; conditions: thermodynamic from solid, ibudilast conc. 75 mg/mL
Description: Solubility of ibudilast was assessed using cosolvent mixtures with and without water, increased surfactant concentrations, or a combination of surfactant and cosolvents as shown in the following table.

`CC(C)C(=O)c1c(C(C)C)nn2ccccc12` [ibudilast, 3-isobutyryl-2-isopropylpyrazolo[1,5-a]pyridine] gave a solubility ([1]; aqueous buffer, thermodynamic from solid, acetate buffer pH 5, 50 mM, ibudilast conc. 5 mg/mL) of 0.175 mg/mL (≈ 0.76 mM), a solubility ([1]; aqueous buffer, thermodynamic from solid, borate buffer pH 9, 50 mM, ibudilast conc. 5 mg/mL) of 0.171 mg/mL (≈ 0.742 mM) and a solubility ([1]; aqueous buffer, thermodynamic from solid, citrate buffer pH 3, 50 mM, ibudilast conc. 5 mg/mL) of 0.375 mg/mL (≈ 1.63 mM). For the same compound, the solubility ([1]; aqueous buffer, thermodynamic from solid, phosphate buffer pH 7.5, 50 mM, ibudilast conc. 5 mg/mL) was 0.175 mg/mL (≈ 0.76 mM), the solubility ([1]; aqueous with cosolvent or surfactant or cyclodextrin, thermodynamic from solid, HP-β-CD 10% w/v, ibudilast conc. 25 mg/mL) was 2.11 mg/mL (≈ 9.14 mM) and the solubility ([1]; aqueous with cosolvent or surfactant or cyclodextrin, thermodynamic from solid, HP-β-CD 30% w/v, ibudilast conc. 25 mg/mL) was 6.72 mg/mL (≈ 29.2 mM). For the same compound, the solubility ([1]; aqueous with cosolvent or surfactant or cyclodextrin, thermodynamic from solid, Kolliphor ELP 5% w/v, ibudilast conc. 25 mg/mL) was 6.82 mg/mL (≈ 29.6 mM), the solubility at 24 h ([1]; aqueous with cosolvent or surfactant or cyclodextrin, thermodynamic from solid, Kolliphor ELP 30% w/v, ibudilast conc. 25 mg/mL, solubility may be higher) was 28 mg/mL (≈ 122 mM) and the solubility ([1]; aqueous with cosolvent or surfactant or cyclodextrin, thermodynamic from solid, Kolliphor HS 15 5% w/v, ibudilast conc. 25 mg/mL) was 5.64 mg/mL (≈ 24.5 mM). It also gave a solubility ([1]; aqueous with cosolvent or surfactant or cyclodextrin, thermodynamic from solid, Kolliphor HS 15 50% w/v, ibudilast conc. 25 mg/mL) of 22.8 mg/mL (≈ 99 mM), a solubility ([1]; aqueous with cosolvent or surfactant or cyclodextrin, thermodynamic from solid, Kolliphor RH 40 5% w/v, ibudilast conc. 25 mg/mL) of 5.58 mg/mL (≈ 24.2 mM) and a solubility ([1]; aqueous with cosolvent or surfactant or cyclodextrin, thermodynamic from solid, Kolliphor RH 40 30% w/v, ibudilast conc. 25 mg/mL) of 29.5 mg/mL (≈ 128 mM). It also gave a solubility ([1]; aqueous with cosolvent or surfactant or cyclodextrin, thermodynamic from solid, PEG 400 25% w/v, ibudilast conc. 25 mg/mL) of 1.11 mg/mL (≈ 4.81 mM), a solubility ([1]; aqueous with cosolvent or surfactant or cyclodextrin, thermodynamic from solid, SBE-β-CD 10% w/v, ibudilast conc. 25 mg/mL) of 3.79 mg/mL (≈ 16.4 mM) and a solubility ([1]; aqueous with cosolvent or surfactant or cyclodextrin, thermodynamic from solid, SBE-β-CD 30% w/v, ibudilast conc. 25 mg/mL) of 11.9 mg/mL (≈ 51.6 mM). The solubility ([1]; aqueous with cosolvent or surfactant or cyclodextrin, thermodynamic from solid, Tween 20 5% w/v, ibudilast conc. 25 mg/mL) was 3.21 mg/mL (≈ 13.9 mM), the solubility at 24 h ([1]; aqueous with cosolvent or surfactant or cyclodextrin, thermodynamic from solid, Tween 20 50% w/v, ibudilast conc. 25 mg/mL, solubility may be higher) was 27.2 mg/mL (≈ 118 mM) and the solubility ([1]; aqueous with cosolvent or surfactant or cyclodextrin, thermodynamic from solid, Tween 80 5% w/v, ibudilast conc. 25 mg/mL) was 4.79 mg/mL (≈ 20.8 mM). The solubility ([1]; aqueous with cosolvent or surfactant or cyclodextrin, thermodynamic from solid, Tween 80 30% w/v, ibudilast conc. 25 mg/mL) was 21.5 mg/mL (≈ 93.4 mM), the solubility ([1]; aqueous with cosolvent or surfactant or cyclodextrin, thermodynamic from solid, ethanol 25% w/v, ibudilast conc. 25 mg/mL) was 4.15 mg/mL (≈ 18 mM) and the solubility ([1]; aqueous with cosolvent or surfactant or cyclodextrin, thermodynamic from solid, glycerol 25% w/v, ibudilast conc. 25 mg/mL) was 0.385 mg/mL (≈ 1.67 mM). It also gave a solubility ([1]; organic solvent or mixture, thermodynamic from solid, PEG 400 100% w/v, more ibudilast added up to 50 mg/mL after 2 h tumbling, solubility may be higher) of 51.6 mg/mL (≈ 224 mM), a solubility ([1]; organic solvent or mixture, thermodynamic from solid, ethanol 100% w/v, more ibudilast added up to 50 mg/mL after 2 h tumbling, solubility may be higher) of 50 mg/mL (≈ 217 mM) and a solubility ([1]; organic solvent or mixture, thermodynamic from solid, glycerol 100% w/v, ibudilast conc. 25 mg/mL) of 10.3 mg/mL (≈ 44.7 mM). For the same compound, the solubility ([1]; organic solvent or mixture, thermodynamic from solid, propylene glycol 100% w/v, more ibudilast added up to 50 mg/mL after 2 h tumbling, solubility may be higher) was 52.9 mg/mL (≈ 230 mM), the solubility ([1]; water, ibudilast conc. 5 mg/mL) was 0.186 mg/mL (≈ 0.808 mM) and the solubility ([2]; Kolliphor ELP/ethanol/water 5/50/45 % w/v, aqueous with cosolvent or surfactant or cyclodextrin) was 83.7 mg/mL. It also gave a solubility ([2]; Kolliphor ELP/propylene glycol/water 5/50/45 % w/v, aqueous with cosolvent or surfactant or cyclodextrin) of 19.4 mg/mL, a solubility ([2]; Kolliphor ELP/propylene glycol/water 30/50/20 % w/v, aqueous with cosolvent or surfactant or cyclodextrin) of 72.9 mg/mL and a solubility ([2]; Kolliphor ELP/water 30/70 % w/v, aqueous with cosolvent or surfactant or cyclodextrin) of 42.7 mg/mL. It also gave a solubility ([2]; Kolliphor ELP/water 80/20 % w/v, aqueous with cosolvent or surfactant or cyclodextrin, less than 5 mL added due to viscosity of medium) of 97.6 mg/mL, a solubility ([2]; PEG 400/water 50/50 % w/v cosolvent mixture, aqueous with cosolvent or surfactant or cyclodextrin, PEG 400/water 50/50 % w/v) of 9.22 mg/mL and a solubility ([2]; Tween 80/ethanol/water 5/50/45 % w/v, aqueous with cosolvent or surfactant or cyclodextrin) of 84 mg/mL. It also gave a solubility ([2]; Tween 80/propylene glycol/water 5/50/45 % w/v, aqueous with cosolvent or surfactant or cyclodextrin) of 14.8 mg/mL, a solubility ([2]; Tween 80/propylene glycol/water 30/50/20 % w/v, aqueous with cosolvent or surfactant or cyclodextrin) of 76.3 mg/mL and a solubility ([2]; Tween 80/water 30/70 % w/v, aqueous with cosolvent or surfactant or cyclodextrin) of 31.9 mg/mL. The solubility ([2]; Tween 80/water 80/20 % w/v, aqueous with cosolvent or surfactant or cyclodextrin, less than 5 mL added due to viscosity of medium) was 84.4 mg/mL, the solubility ([2]; aqueous with cosolvent or surfactant or cyclodextrin, propylene glycol/ethanol/water 50/25/25 % w/v) was 71.4 mg/mL and the solubility ([2]; ethanol/water 50/50 % w/v, aqueous with cosolvent or surfactant or cyclodextrin) was 72.6 mg/mL. It also gave a solubility ([2]; organic solvent or mixture, propylene glycol/PEG 400/glycerol 50/25/25 % w/v) of 68.7 mg/mL, a solubility ([2]; organic solvent or mixture, propylene glycol/ethanol/glycerol 50/25/25 % w/v) of 71.9 mg/mL and a solubility ([2]; propylene glycol/PEG 400/water 50/25/25 % w/v, aqueous with cosolvent or surfactant or cyclodextrin) of 31.3 mg/mL. The solubility ([2]; propylene glycol/water 50/50 % w/v, aqueous with cosolvent or surfactant or cyclodextrin) was 5.82 mg/mL and the solubility ([2]; propylene glycol/water 80/20 % w/v, aqueous with cosolvent or surfactant or cyclodextrin) was 37.3 mg/mL.
